Patent EP4707277A1, “NOVEL HETEROCYCLIC AMINE DERIVATIVES AND PHARMACEUTICAL COMPOSITION COMPRISING SAME” (Daewoong Pharmaceutical Co., Ltd., priority 2023, dated 2024)
Like-named read-outs stand apart in the source and are kept apart here.

What was measured:
BTK = molecular target: T1, BTK (Homo sapiens, UniProt Q06187); experiment: Inhibitory activity against BTK, ADP-Glo Kinase system (Promega); assay type: biochemical
T1 construct: purchased Signalchem B10-10H
Procedure: (§1) Inhibitory activities against BTK and ITK were measured for the compounds prepared in the above Examples as follows.
(§2) The inhibitory activities against BTK and ITK were evaluated using 'ADP-Glo™ Kinase system' (Promega Corporation). In the case of this evaluation method, activation was measured by quantifying the amount of ADP produced during the kinase reaction, which was utilized to measure the inhibitory activities against BTK and ITK.
(§3) Specifically, the inhibitory activities against BTK and ITK were measured using BTK kinase (Signalchem, B10-10H), ITK kinase (Signalchem, I13-11G-10), and ADP-Glo kinase assay kit (Promega, V9102). Recombinant purified human BTK and ITK were diluted with 1 x kinase reaction buffer (40 mM Tris-Cl, pH 7.5, 20 mM MgCl2, 0.1 mg/mL BSA, 2 mM MnCl2 and 50 uM DTT) and added to a 96 well plate (ITK: final concentration of 4 ng per reaction/BTK: final concentration of 10 ng per reaction). The compounds prepared in the previous Examples were treated so as to be finally a 1% DMSO aqueous solution, and a substrate cocktail containing ATP (1mM or Km ATP (BTK: 10 uM /ITK: 25uM)) and 0.2 ug/ul of Poly (Glu4,Tyr1) peptide (BTK and ITK final concentration) in the total 25 uL reactants was added to a 96-well plate to initiate enzymatic reaction. After incubation (30°C) for 1 hour, equivalent volume (25 uL per reaction) of ADP Glo was added, and incubated (30°C) for 40 minutes at room temperature. Then, a kinase detection reagent (45 uL per reaction) was added, and incubated (30°C) for 30 minutes at room temperature. The kinase activity was measured by chemiluminescence according to the instructions of ADP Glo kinase assay kit, and the inhibitory activity of the compounds according to the present disclosure was calculated. For the analysis of the results of each compound, Microsoft Excel was used, and IC50 values were calculated by GraphPad Prism software.

ITK = molecular target: T2, ITK (Homo sapiens, UniProt Q08881); experiment: Inhibitory activity against ITK, ADP-Glo Kinase system (Promega); assay type: biochemical
T2 construct: purchased Signalchem I13-11G-10
T2 sequence (Q08881 1-620): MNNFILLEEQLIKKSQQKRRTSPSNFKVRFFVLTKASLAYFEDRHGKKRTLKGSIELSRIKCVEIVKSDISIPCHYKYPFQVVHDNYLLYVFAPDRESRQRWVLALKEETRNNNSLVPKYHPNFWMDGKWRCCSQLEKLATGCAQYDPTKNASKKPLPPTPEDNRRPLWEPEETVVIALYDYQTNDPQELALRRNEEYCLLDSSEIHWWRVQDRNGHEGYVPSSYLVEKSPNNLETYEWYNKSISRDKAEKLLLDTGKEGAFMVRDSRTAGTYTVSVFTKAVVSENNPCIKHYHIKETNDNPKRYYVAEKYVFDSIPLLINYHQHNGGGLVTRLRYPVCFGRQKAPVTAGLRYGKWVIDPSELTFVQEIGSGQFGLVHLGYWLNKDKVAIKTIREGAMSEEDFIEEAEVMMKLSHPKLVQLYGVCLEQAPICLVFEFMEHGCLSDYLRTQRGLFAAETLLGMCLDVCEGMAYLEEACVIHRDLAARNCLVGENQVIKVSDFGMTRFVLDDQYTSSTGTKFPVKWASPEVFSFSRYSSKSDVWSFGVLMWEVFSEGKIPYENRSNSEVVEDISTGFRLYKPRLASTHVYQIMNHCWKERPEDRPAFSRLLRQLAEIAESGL
Procedure: as §1, §2, §3

[1] = Km ATP (BTK: 10 uM), read-out: BTK IC50(nM) Km ATP
[2] = Km ATP (ITK: 25uM), read-out: ITK IC50(nM) Km ATP
[3] = 1mM ATP, read-out: BTK IC50(nM) 1mM ATP
[4] = 1mM ATP, read-out: ITK IC50(nM) 1mM ATP

T1 sequence (Q06187 whole entry): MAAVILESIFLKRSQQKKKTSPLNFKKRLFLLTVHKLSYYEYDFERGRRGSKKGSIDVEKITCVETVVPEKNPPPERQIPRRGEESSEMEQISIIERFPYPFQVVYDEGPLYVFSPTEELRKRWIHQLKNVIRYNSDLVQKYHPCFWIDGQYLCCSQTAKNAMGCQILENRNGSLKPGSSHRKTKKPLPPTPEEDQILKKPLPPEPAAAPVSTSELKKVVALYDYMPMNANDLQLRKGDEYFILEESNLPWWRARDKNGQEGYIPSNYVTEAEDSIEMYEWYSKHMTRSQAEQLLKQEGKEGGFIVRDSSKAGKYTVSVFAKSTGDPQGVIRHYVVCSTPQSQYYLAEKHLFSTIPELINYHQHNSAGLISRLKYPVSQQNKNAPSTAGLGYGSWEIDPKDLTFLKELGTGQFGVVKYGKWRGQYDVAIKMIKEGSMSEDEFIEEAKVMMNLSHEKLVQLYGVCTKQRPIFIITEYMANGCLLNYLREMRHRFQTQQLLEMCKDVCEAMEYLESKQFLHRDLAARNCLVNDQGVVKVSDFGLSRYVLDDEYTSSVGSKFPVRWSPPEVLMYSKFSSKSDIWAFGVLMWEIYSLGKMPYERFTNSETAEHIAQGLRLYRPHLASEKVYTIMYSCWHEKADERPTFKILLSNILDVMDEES

Molecule `C=CC(=O)N1CC=C(c2nc(Nc3ncc(C)s3)cc3c2ccn3C(F)F)CC1` [Example 21, 1-(4-(1-(difluoromethyl)-6-((5-methylthiazol-2-yl)amino)-1H-pyrrolo[3,2-c]pyridin-4-yl)-3,6-dihydropyridin-1(2H)-yl)prop-2-en-1-one] has an IC50 (BTK; [1]) of at most 20 nM and an IC50 (ITK; [2]) of at most 20 nM.

For `C=CC(=O)N1CC(C)(Oc2nc(Nc3ncc(C)s3)cc3c2ccn3CCC)C1` [Example 176, 1-(3-methyl-3-((6-((5-methylthiazol-2-yl)amino)-1-propyl-1H-pyrrolo[3,2-c]pyridin-4-yl)oxy)azetidin-1-yl)prop-2-en-1-one], the IC50 (BTK; [3]) was at most 20 nM and the IC50 (ITK; [4]) was at most 20 nM.

Work on `C=CC(=O)Nc1ccc(F)c(-c2nc(Nc3ncc(C)s3)cc3c2ccn3CC(F)F)c1` [Example 75, N-(3-(1-(2,2-difluoroethyl)-6-((5-methylthiazol-2-yl)amino)-1H-pyrrolo[3,2-c]pyridin-4-yl)-4-fluorophenyl)acrylamide] yielded an IC50 (BTK; [3]) of 20 to 100 nM, an IC50 (BTK; [1]) of at most 20 nM and an IC50 (ITK; [4]) of 100 to 500 nM. The IC50 (ITK; [2]) was at most 20 nM.

`C=CC(=O)N1CCC[C@H](COc2nc(Nc3ncc(C)s3)cc3c2ccn3CC(C)C)C1` [Example 215, (S)-1-(3-(((1-isobutyl-6-((5-methylthiazol-2-yl)amino)-1H-pyrrolo[3,2-c]pyridin-4-yl)oxy)methyl)piperidin-1-yl)prop-2-en-1-one] gave an IC50 (BTK; [3]) of at most 20 nM and an IC50 (ITK; [4]) of 100 to 500 nM.

For `C=CC(=O)N1CCC[C@H](Oc2nc(Nc3ncc(C)s3)cc3c2ccn3CCOC)C1` [Example 148, (S)-1-(3-((1-(2-methoxyethyl)-6-((5-methylthiazol-2-yl)amino)-1H-pyrrolo[3,2-c]pyridin-4-yl)oxy)piperidin-1-yl)prop-2-en-1-one], the IC50 (BTK; [3]) was at most 20 nM and the IC50 (ITK; [4]) was at most 20 nM.

Molecule `C=CC(=O)N1C2C=C(c3nc(Nc4ncc(C)s4)cc4c3ccn4CC3(C(F)(F)F)CC3)CC1CC2` (centres unmarked) [Example 30, 1-(3-(6-((5-methylthiazol-2-yl)amino)-1-((1-(trifluoromethyl)cyclopropyl)methyl)-1H-pyrrolo[3,2-c]pyridin-4-yl)-8-azabicyclo[3.2.1]oct-2-en-8-yl)prop-2-en-1-one] has an IC50 (BTK; [3]) of at most 20 nM and an IC50 (ITK; [4]) of at most 20 nM.

With `C=CC(=O)N1C[C@@H](OC)C[C@@H]1COc1nc(Nc2ncc(C)s2)cc2c1ccn2C(C)C` [Example 94, 1-((2R,4S)-2-(((1-isopropyl-6-((5-methylthiazol-2-yl)amino)-1H-pyrrolo[3,2-c]pyridin-4-yl)oxy)methyl)-4-methoxypyrrolidin-1-yl)prop-2-en-1-one] the IC50 (BTK; [3]) was at most 20 nM and the IC50 (ITK; [4]) was at most 20 nM.

In the case of `C=CC(=O)N1C[C@@H](F)[C@H](Oc2nc(Nc3ncc(C)s3)cc3c2ccn3CC(C)CC)C1` (stereo partly drawn) [Example 173, 1-((3R,4R)-3-fluoro-4-((1-(2-methylbutyl)-6-((5-methylthiazol-2-yl)amino)-1H-pyrrolo[3,2-c]pyridin-4-yl)oxy)pyrrolidin-1-yl)prop-2-en-1-one], the IC50 (BTK; [3]) is reported as at most 20 nM and the IC50 (ITK; [4]) is reported as at most 20 nM.

With `C=CC(=O)N1C[C@@H](F)[C@H](Oc2nc(Nc3ncc(C)s3)cc3c2ccn3CCC(C)C)C1` [Example 115, 1-((3R,4R)-3-fluoro-4-((1-isopentyl-6-((5-methylthiazol-2-yl)amino)-1H-pyrrolo[3,2-c]pyridin-4-yl)oxy)pyrrolidin-1-yl)prop-2-en-1-one] the IC50 (BTK; [1]) was at most 20 nM and the IC50 (ITK; [2]) was at most 20 nM.

For `C=CC(=O)N1CC[C@H](Oc2nc(Nc3cc(C(F)(F)F)ncn3)cc3c2ccn3C(C)C)C1` [Example 95, (S)-1-(3-((1-isopropyl-6-((6-(trifluoromethyl)pyrimidin-4-yl)amino)-1H-pyrrolo[3,2-c]pyridin-4-yl)oxy)pyrrolidin-1-yl)prop-2-en-1-one], the IC50 (BTK; [3]) was at most 20 nM and the IC50 (ITK; [4]) was 100 to 500 nM.

`C=CC(=O)N1C[C@H](F)[C@H](Oc2nc(Nc3ncc(C)s3)cc3c2ccn3CC2CCCC2)C1` [Example 132, 1-((3R,4S)-3-((1-(cyclopentylmethyl)-6-((5-methylthiazol-2-yl)amino)-1H-pyrrolo[3,2-c]pyridin-4-yl)oxy)-4-fluoropyrrolidin-1-yl)prop-2-en-1-one] gave an IC50 (BTK; [3]) of at most 20 nM and an IC50 (ITK; [4]) of at most 20 nM.

`C=CC(=O)N1CCC[C@@H]1COc1nc(Nc2ncc(C)s2)cc2c1ccn2CC(F)(F)F` [Example 207, (R)-1-(2-(((6-((5-methylthiazol-2-yl)amino)-1-(2,2,2-trifluoroethyl)-1H-pyrrolo[3,2-c]pyridin-4-yl)oxy)methyl)pyrrolidin-1-yl)prop-2-en-1-one] gave an IC50 (BTK; [3]) of at most 20 nM and an IC50 (ITK; [4]) of at most 20 nM.

In the case of `C=CC(=O)N1CC[C@H](Oc2nc(Nc3ncc(C)s3)cc3c2ccn3Cc2ccccc2)C1` [Example 121, (S)-1-(3-((1-benzyl-6-((5-methylthiazol-2-yl)amino)-1H-pyrrolo[3,2-c]pyridin-4-yl)oxy)pyrrolidin-1-yl)prop-2-en-1-one], the IC50 (BTK; [1]) is reported as at most 20 nM and the IC50 (ITK; [2]) is reported as at most 20 nM.

`C=CC(=O)N1CC[C@H](Oc2nc(Nc3ncc(C)s3)cc3c2ccn3CC(F)F)C1` [Example 206, (S)-1-(3-((1-(2,2-difluoroethyl)-6-((5-methylthiazol-2-yl)amino)-1H-pyrrolo[3,2-c]pyridin-4-yl)oxy)pyrrolidin-1-yl)prop-2-en-1-one] was tested, and the IC50 (BTK; [3]) was at most 20 nM and the IC50 (ITK; [4]) was at most 20 nM.

For `C=CC(=O)N1C[C@@H](Oc2nc(Nc3ncc(C)s3)cc3c2ccn3C(C)C)C[C@H]1C` [Example 87, 1-((2R,4S)-4-((1-isopropyl-6-((5-methylthiazol-2-yl)amino)-1H-pyrrolo[3,2-c]pyridin-4-yl)oxy)-2-methylpyrrolidin-1-yl)prop-2-en-1-one], the IC50 (BTK; [3]) was at most 20 nM and the IC50 (ITK; [4]) was at most 20 nM.

For `C=CC(=O)N1CC[C@H](Oc2nc(Nc3ncc(C)s3)cc3c2ccn3CC2CC2)C1` [Example 97, (S)-1-(3-((1-(cyclopropylmethyl)-6-((5-methylthiazol-2-yl)amino)-1H-pyrrolo[3,2-c]pyridin-4-yl)oxy)pyrrolidin-1-yl)prop-2-en-1-one], the IC50 (BTK; [3]) was at most 20 nM and the IC50 (ITK; [4]) was at most 20 nM.

For `C=CC(=O)N1C2C=C(c3nc(Nc4ncc(C)s4)cc4c3ccn4CC(C)C)CC1CC2` (centres unmarked) [Example 32, 1-(3-(1-isobutyl-6-((5-methylthiazol-2-yl)amino)-1H-pyrrolo[3,2-c]pyridin-4-yl)-8-azabicyclo[3.2.1]oct-2-en-8-yl)prop-2-en-1-one], the IC50 (BTK; [3]) was at most 20 nM, the IC50 (BTK; [1]) was at most 20 nM and the IC50 (ITK; [4]) was at most 20 nM. The IC50 (ITK; [2]) was at most 20 nM.

`C=CC(=O)N1CCC[C@H]1COc1nc(Nc2ncc(C)s2)cc2c1ccn2C1CCCC1` [Example 222, (S)-1-(2-(((1-cyclopentyl-6-((5-methylthiazol-2-yl)amino)-1H-pyrrolo[3,2-c]pyridin-4-yl)oxy)methyl)pyrrolidin-1-yl)prop-2-en-1-one] showed an IC50 (BTK; [3]) of at most 20 nM and an IC50 (ITK; [4]) of 20 to 100 nM.

With `C=CC(=O)N1CC=C(c2nc(Nc3ncc(C)s3)cc3c2ccn3C(C)(C)C#N)CC1` [Example 22, 2-(4-(1-acryloyl-1,2,3,6-tetrahydropyridin-4-yl)-6-((5-methylthiazol-2-yl)amino)-1H-pyrrolo[3,2-c]pyridin-1-yl)-2-methylpropanenitrile] the IC50 (BTK; [1]) was at most 20 nM and the IC50 (ITK; [2]) was at most 20 nM.

`C=CC(=O)N1CC[C@H](Oc2nc(Nc3cc(C)ncn3)cc3c2ccn3CC(C)C)C1` [Example 104, (S)-1-(3-((1-isobutyl-6-((6-methylpyrimidin-4-yl)amino)-1H-pyrrolo[3,2-c]pyridin-4-yl)oxy)pyrrolidin-1-yl)prop-2-en-1-one] showed an IC50 (BTK; [3]) of 20 to 100 nM and an IC50 (ITK; [4]) of 20 to 100 nM.
